Values of other authors, collected in patent US10052295B2, “Method, composition and package for bowel cleansing” (priority 2011, dated 2018).

Row | watery feces (doses over 35 grams, compared with erythritol (Storey 2006)) | Structure (SMILES) | GI symptoms (doses as high as 50 mg (Storey 2006)) | toxic effects in humans (doses as high as 50 grams per day for over two years (Makinen 1976))
1 |  | OC[C@@H](O)[C@@H](O)CO [erythritol] | not reported to produce any significant GI symptoms | 
2 | significantly more watery feces | OC[C@@H](O)[C@H](O)[C@@H](O)CO [xylitol] |  | no toxic effects
